Patent publication US9273043B2, “TRPV1 antagonists including dihydroxy substituent and uses thereof” (Purdue Pharma L.P., priority 2011, dated 2016)
Values after ≈ are worked out from the molar mass of the structure shown. Like-named read-outs stand apart in the source and are kept apart here.

Key:
[1] = Aqueous solubility at pH 1.2 and pH 6.8; assay type: physicochemical; conditions: aqueous solution
human TRPV1 = human TRPV1 (Homo sapiens (Human), UniProt Q8NER1); assay: Capsaicin-based assay, Protocol 2, TRPV1/CHO cells (hCAP-CHO), Fluo-4 FLIPR; assay type: cell-based; conditions: 100 nM capsaicin, mean ± SEM
human TRPV1, sequence (Q8NER1 whole entry, looked up): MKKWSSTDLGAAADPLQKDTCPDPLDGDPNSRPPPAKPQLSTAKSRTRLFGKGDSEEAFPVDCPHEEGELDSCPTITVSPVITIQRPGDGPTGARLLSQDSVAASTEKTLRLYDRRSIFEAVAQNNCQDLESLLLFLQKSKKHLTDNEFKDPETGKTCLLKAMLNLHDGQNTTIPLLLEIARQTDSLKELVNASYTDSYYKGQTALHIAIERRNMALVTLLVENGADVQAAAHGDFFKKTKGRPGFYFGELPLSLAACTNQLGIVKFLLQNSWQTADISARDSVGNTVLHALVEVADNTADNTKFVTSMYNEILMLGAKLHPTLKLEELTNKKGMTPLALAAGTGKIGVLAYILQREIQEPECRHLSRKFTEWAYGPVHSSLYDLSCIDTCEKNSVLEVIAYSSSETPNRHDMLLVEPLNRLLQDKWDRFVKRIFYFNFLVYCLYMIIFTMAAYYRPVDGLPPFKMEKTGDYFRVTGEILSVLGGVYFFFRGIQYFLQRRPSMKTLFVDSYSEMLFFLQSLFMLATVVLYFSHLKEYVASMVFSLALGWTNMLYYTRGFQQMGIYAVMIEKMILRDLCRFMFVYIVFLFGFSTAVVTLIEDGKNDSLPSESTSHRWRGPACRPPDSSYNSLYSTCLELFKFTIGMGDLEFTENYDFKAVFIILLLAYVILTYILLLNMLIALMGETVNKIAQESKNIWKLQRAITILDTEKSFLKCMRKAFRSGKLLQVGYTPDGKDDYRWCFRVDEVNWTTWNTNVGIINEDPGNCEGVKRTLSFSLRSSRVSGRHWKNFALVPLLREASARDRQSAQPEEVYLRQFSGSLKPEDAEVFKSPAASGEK
Method in brief: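 CHO cells stably transfected with human TRPV1 cDNA (G418-selected) were loaded with 3 μM Fluo-4 for 1 h, washed, then read on FLIPR with 15 s baseline before additions. Compound tested at final 100 μM to 1.5625 μM against capsaicin stimulation; calcium fluorescence time course curve-fitted.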

[2] = In vivo assay of body temperature increase (rectal body temperature); parameters: species or system rat; conditions: rats, oral, 10 mL/kg of 1 mg/mL in 0.5% methylcellulose; greatest ΔTb versus vehicle control at 0.5, 1 or 2 hrs
Method in brief: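 Male Crl/SD rats (7 weeks), acclimated and preselected for rectal temperature 37.0–37.7° C., given compound orally once at 1 mg/mL in 0.5% methylcellulose, 10 mL/kg. Rectal temperature by thermistor at 0.5, 1 and 2 h post-dose; ΔTb = treated group mean minus vehicle group mean, maximum across time points reported.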

[3] = pH 1.2, simulated gastric fluid, read-out: aqueous solubility at pH 1.2
[4] = pH 6.8, aqueous buffer, read-out: aqueous solubility at pH 6.8

solubility [1, 3] [µM] | solubility [1, 4] [µM] | IC50 (human TRPV1) [nM] | ΔTb, body temperature increase [2] [°C] | SMILES
 |  | 68 ± 17 | 0.5 | C[C@@H]1CN(C(=O)Nc2nc3cc(F)c(F)cc3s2)CCN1c1ncc([C@H](O)CO)cc1F [AE, (R)—N-(5,6-difluorobenzo[d]thiazol-2-yl)-4-{5-[(S)-1,2-dihydroxyethyl]-3-fluoropyridin-2-yl}-3-methylpiperazine-1-carboxamide]
 |  | 112 ± 32 | 0.1 | C[C@@H]1CN(C(=O)Nc2nc3ccc(F)cc3s2)CCN1c1ncc([C@H](O)CO)cc1F [A125(b), (R)-4-{5-[(S)-1,2-dihydroxyethyl]-3-fluoropyridin-2-yl}-N-(6-fluorobenzo[d]thiazol-2-yl)-3-methylpiperazine-1-carboxamide]
 |  | 89 ± 34 | 0.2 | Cc1cc2nc(NC(=O)N3CCN(c4ncc([C@H](O)[C@H](C)O)cc4F)CC3)sc2cc1C [C170(r), 4-(5-((1S,2S)-1,2-dihydroxypropyl)-3-fluoropyridin-2-yl)-N-(5,6-dimethylbenzo[d]thiazol-2-yl)piperazine-1-carboxamide]

Second part, the compound before the results:

SMILES | solubility [1, 3] [µM] | solubility [1, 4] [µM] | IC50 (human TRPV1) [nM] | ΔTb, body temperature increase [2] [°C]
Cc1ccc2nc(NC(=O)N3CCN(c4ncc([C@H](O)CO)cc4F)C[C@@H]3C)sc2c1 [A126(a), (S)-4-(5-((S)-1,2-dihydroxyethyl)-3-fluoropyridin-2-yl)-2-methyl-N-(6-methylbenzo[d]thiazol-2-yl)piperazine-1-carboxamide] | > 50 | 14 (≈ 6.24 µg/mL) | 40.2 ± 11 | 0.2
C[C@H]1CN(c2ncc([C@H](O)CO)cc2F)CCN1C(=O)Nc1nc2ccccc2s1 [A122(a), (S)—N-(benzo[d]thiazol-2-yl)-4-(5-((S)-1,2-dihydroxyethyl)-3-fluoropyridin-2-yl)-2-methylpiperazine-1-carboxamide] | > 50 | > 50 | 177 ± 69 | 0.4
Cc1ccc2nc(NC(=O)N3CCN(c4ncc([C@H](O)[C@H](C)O)cc4F)CC3)sc2c1 [C126(r), 4-[5-((1S,2S)-1,2-Dihydroxy-propyl)-3-fluoro-pyridin-2-yl]piperazine-1-carboxylic acid (6-methyl-benzothiazol-2-yl)-amide] | > 50 | 4 (≈ 1.78 µg/mL) | 71 ± 20 | 0.4
C[C@H](O)[C@@H](O)c1cnc(N2CCN(C(=O)Nc3nc4ccc(F)cc4s3)CC2)c(F)c1 [C125(r), 4-(5-((1S,2S)-1,2-dihydroxypropyl)-3-fluoropyridin-2-yl)-N-(6-fluorobenzo[d]thiazol-2-yl)piperazine-1-carboxamide] | > 50 | 3 (≈ 1.35 µg/mL) | 99 ± 24 | 0.3
C[C@H]1CN(c2ncc([C@H](O)CO)cc2F)CCN1C(=O)Nc1nc2cc(F)c(F)cc2s1 [A158(a), (S)—N-(5,6-difluorobenzo[d]thiazol-2-yl)-4-(5-((S)-1,2-dihydroxyethyl)-3-fluoropyridin-2-yl)-2-methylpiperazine-1-carboxamide] | > 50 | 5 (≈ 2.34 µg/mL) | 62.4 ± 13.8 | 0.4
C[C@H](O)[C@@H](O)c1cnc(N2CCN(C(=O)Nc3nc4cc(F)c(F)cc4s3)C[C@H]2C)c(F)c1 [B158(j), (R)—N-(5,6-difluorobenzo[d]thiazol-2-yl)-4-{5-[(1S,2S)-1,2-dihydroxypropyl]-3-fluoropyridin-2-yl}-3-methylpiperazine-1-carboxamide] |  |  | 49 ± 10 | 0.1
C[C@H](O)[C@@H](O)c1cnc(N2CCN(C(=O)Nc3nc4ccc(F)cc4s3)CC2)c(Cl)c1 [C4(r), 4-{3-Chloro-5-[(1S,2S)-1,2-dihydroxypropyl]pyridin-2-yl}-N-(6-fluorobenzo[d]thiazol-2-yl)piperazine-1-carboxamide] |  |  | 42.8 ± 2 | 0.3
